The results in this text go back to patent publication US8653257B2, “Dibenzothiazepine derivatives and uses thereof—424” (Astrazeneca AB, priority 2008, dated 2014).

For one assay, the target named is dopamine D2s receptor (Homo sapiens (Human), UniProt P14416). The assay is described as follows: D2 antagonist GTPγS functional assay. Format: biochemical. To be noted: antagonist mode. The procedure: In vitro experimental assays can generally be carried out as described herein. Briefly, CHO-K1 cells stably transfected with the dopamine D2s receptor can be used in the experiments and maintained in Ham's F12 culture medium supplemented with 2 mM L-glutamine, 10% FBS, and 500 μg/ml Hygromycin.
Sequence of dopamine D2s receptor (P14416 other isoform, or with tags, fused parts or gaps): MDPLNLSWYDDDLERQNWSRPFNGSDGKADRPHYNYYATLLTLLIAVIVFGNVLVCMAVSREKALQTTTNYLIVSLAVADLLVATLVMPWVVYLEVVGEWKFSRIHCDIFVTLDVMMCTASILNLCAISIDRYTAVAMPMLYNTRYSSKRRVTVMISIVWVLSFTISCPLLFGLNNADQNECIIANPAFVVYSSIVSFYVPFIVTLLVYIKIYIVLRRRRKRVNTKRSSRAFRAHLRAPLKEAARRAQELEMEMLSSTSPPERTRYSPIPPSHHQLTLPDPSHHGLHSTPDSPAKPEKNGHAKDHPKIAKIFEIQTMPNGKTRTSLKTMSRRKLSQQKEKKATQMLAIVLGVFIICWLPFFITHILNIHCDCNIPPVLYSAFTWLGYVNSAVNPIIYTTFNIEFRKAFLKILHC
GTPgS assay can be performed substantially as described by Lazareno, Methods in Molecular Biology, 1999, 106, 231-245. Antagonist activity of compounds can be determined by the ability of test compounds to block dopamine-stimulated [^35S]-GTPγS binding to cell membranes from D2s stably-transfected CHO cells.

The test system of assay [1] is Conditioned Avoidance Responding. The assay is described as follows: Conditioned avoidance responding (CAR) assay. To be noted: 30 mg/kg and 60 mg/kg (sc), rat. It is filed as in vivo, Male Long-Evans rats. The procedure: Male Long-Evans rats can be trained to traverse to the opposite side of a standard shuttle cage following presentation of an auditory and visual stimulus to avoid delivery of electric shock to the floor of the cage. Daily sessions can consist of up to 80 trials. If a shock is delivered, animals have the opportunity to escape the shock by traversing to the opposite side of the cage. Drug can be administered (via s.c. or p.o. route) 60 minutes prior to testing and the percentage of trials in which shock is avoided and escaped can be recorded.

The subject of assay [2] is D-Amphetamine-induced Hyperlocomotor Activity. The assay is described as follows: D-Amphetamine-induced hyperlocomotor activity (LMA) in habituated rat model. It is filed as in vivo, male Long Evans rats. To be noted: 30 mg/kg and 60 mg/kg (sc). The procedure:
Studies in vivo can be used to determine the antipsychotic effect and are generally carried out as follows. Briefly, D-Amphetamine-induced Hyperlocomotor Activity (LMA) in a Habituated Rat Model can be assessed in male Long Evans rats using a paradigm that includes a habituation phase followed by administration of 1 mg/kg D-amphetamine. Animals can be allowed to acclimatize to the testing room for 1 hour before being weighed and placed into activity chambers. Thirty minutes after LMA measurement is begun, animals can be briefly removed, dosed via the sub-cutaneous route (s.c.) with vehicle or test drug at different doses and returned to the chambers. After a further 30 minutes, animals can again be removed and dosed with vehicle or D-amphetamine at 1 mg/kg (s.c.). After returning the animals to the activity chambers, LMA can be assessed for a further 60 minutes. Haloperidol (0.1 mg/kg dissolved in H2O) can be administered 15 minutes prior to D-amphetamine via the s.c. route. Statistical analysis can be made of total distance traveled after D-amphetamine administration using ANOVA and Tukey's post hoc analysis where appropriate. All values can be expressed as Mean and SD.

The next assay concerns the target H1 receptor (Homo sapiens (Human), UniProt P35367). The assay is described as follows: H1 receptor binding. Set-up: species or system Hu. To be noted: one average result. From the text:
The H1 receptor binding method can be carried out in accordance with De Backer et al., Biochem. Biophys. Res. Commun., 1993, 197(3), 1601.

For orientation: Ki means the dissociation constant of the complex between target and ligand, obtained from inhibition or displacement. A lower Ki goes with a stronger hold on the target.

Sequence of H1 receptor (P35367 whole entry): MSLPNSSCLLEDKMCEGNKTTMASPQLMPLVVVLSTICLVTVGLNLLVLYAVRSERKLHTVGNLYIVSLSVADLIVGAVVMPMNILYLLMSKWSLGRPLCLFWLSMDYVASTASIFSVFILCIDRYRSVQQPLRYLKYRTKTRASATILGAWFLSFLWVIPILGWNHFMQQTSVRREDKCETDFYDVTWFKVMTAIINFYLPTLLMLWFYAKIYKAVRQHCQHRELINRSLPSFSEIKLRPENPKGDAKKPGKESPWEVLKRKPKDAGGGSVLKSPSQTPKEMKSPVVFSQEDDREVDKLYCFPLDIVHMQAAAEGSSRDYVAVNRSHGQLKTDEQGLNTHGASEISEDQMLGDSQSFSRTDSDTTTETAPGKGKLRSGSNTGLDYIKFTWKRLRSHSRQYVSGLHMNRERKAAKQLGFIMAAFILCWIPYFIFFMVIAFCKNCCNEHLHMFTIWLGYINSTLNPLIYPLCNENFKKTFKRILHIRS

For the molecule `CN1CCN(C2=Nc3ccccc3Sc3ccc(Cl)cc32)CC1` [2-Chloro-11-(4-methyl-piperazin-1-yl)-dibenzo[b,f][1,4]thiazepine], on dopamine D2s receptor, the “D2 Ant GTPγS Top Effect” value was 100. Same read-out and setting: with `Clc1ccc2c(c1)C(N1CCNCC1)=Nc1ccccc1S2` [2-Chloro-11-piperazin-1-yl-dibenzo[b,f][1,4]thiazepine] the figure was 100. Same read-out and setting: with `CN1CCN(C2=Nc3ccccc3Sc3ccc(F)cc32)CC1` [2-Fluoro-11-(4-methyl-piperazin-1-yl)-dibenzo[b,f][1,4]thiazepine] the figure was 100; with `c1ccc2c(c1)N=C(N1CCNCC1)c1ccccc1S2` [11-Piperazin-1-yl-dibenzo[b,f][1,4]thiazepine], 89.

As for `Fc1ccc2c(c1)C(N1CCNCC1)=Nc1ccccc1S2` [Example 1, 2-fluoro-11-(piperazin-1-yl)dibenzo[b,f][1,4]thiazepine], on dopamine D2s receptor, the “D2 Ant GTPγS Top Effect” value stood at 97. Further, the “activity in conditioned avoidance responding” value in assay [1] is recorded as “showed activity”. Moreover, in assay [2], the “activity in D-amphetamine-induced hyperlocomotor activity” value is reported as “showed activity”. The molecule further came in with an inhibitory constant (Ki) on H1 receptor of around 7.1 nM.
